System: CHO-K1 cells
Experiment: Batch fermentation in shake flasks of human IgG1 expressing stable cell populations (Poros A-HPLC titer, viable cell density, viability)
Format: cell-based, Chinese hamster
Conditions: pJF1576
[1] = Day 2 after inoculation, selected in CD-Fusion w/o Pro + 0.05 mM DHP, non-selecting conditions
[2] = Day 2 after inoculation, selected in CD-Fusion w/o Pro + 0.1 mM DHP, non-selecting conditions
[3] = Day 2 after inoculation, selected in CD-Fusion w/o Pro + 0.2 mM DHP, non-selecting conditions
[4] = Day 2 after inoculation, selected in CD-Fusion w/o Pro + 0.4 mM DHP, non-selecting conditions
[5] = Day 3 after inoculation, selected in CD-Fusion w/o Pro + 0.05 mM DHP, selective conditions
[6] = Day 3 after inoculation, selected in CD-Fusion w/o Pro + 0.1 mM DHP, selective conditions
[7] = Day 3 after inoculation, selected in CD-Fusion w/o Pro + 0.2 mM DHP, selective conditions
[8] = Day 3 after inoculation, selected in CD-Fusion w/o Pro + 0.4 mM DHP, selective conditions
[9] = Day 4 after inoculation, selected in CD-Fusion w/o Pro + 0.05 mM DHP, non-selecting conditions
[10] = Day 4 after inoculation, selected in CD-Fusion w/o Pro + 0.1 mM DHP, non-selecting conditions
[11] = Day 4 after inoculation, selected in CD-Fusion w/o Pro + 0.2 mM DHP, non-selecting conditions
[12] = Day 4 after inoculation, selected in CD-Fusion w/o Pro + 0.4 mM DHP, non-selecting conditions
[13] = Day 5 after inoculation, selected in CD-Fusion w/o Pro + 0.05 mM DHP, selective conditions
[14] = Day 5 after inoculation, selected in CD-Fusion w/o Pro + 0.1 mM DHP, selective conditions
[15] = Day 5 after inoculation, selected in CD-Fusion w/o Pro + 0.2 mM DHP, selective conditions
[16] = Day 5 after inoculation, selected in CD-Fusion w/o Pro + 0.4 mM DHP, selective conditions
[17] = Day 7 after inoculation, selected in CD-Fusion w/o Pro + 0.05 mM DHP, non-selecting conditions
[18] = Day 7 after inoculation, selected in CD-Fusion w/o Pro + 0.05 mM DHP, selective conditions

O=C(O)[C@@H]1C=CCN1 [DHP, 3,4-Dehydro-L-Proline]
titer improvements (0.2 mM or 0.4 mM DHP as additional selection additives, human IgG1, non-selecting batch, #1 - #3 vs #6 & #7): 2-3 fold | titer improvements as compared to Puromycin-based selections (DHP as additional selection agent in initial selections, human IgG1, batch under selective conditions): 2-3 fold | Viability profile (Day 0 after inoculation, selected in CD-Fusion w/o Pro + 0.05 mM DHP, non-selecting conditions): 99.4% | Viability profile (Day 0 after inoculation, selected in CD-Fusion w/o Pro + 0.05 mM DHP, selective conditions): 98.4% | Viability profile (Day 0 after inoculation, selected in CD-Fusion w/o Pro + 0.1 mM DHP, non-selecting conditions): 99.0% | Viability profile (Day 0 after inoculation, selected in CD-Fusion w/o Pro + 0.1 mM DHP, selective conditions): 97.5% | Viability profile (Day 0 after inoculation, selected in CD-Fusion w/o Pro + 0.2 mM DHP, non-selecting conditions): 98.6% | Viability profile (Day 0 after inoculation, selected in CD-Fusion w/o Pro + 0.2 mM DHP, selective conditions): 98.2% | Viability profile (Day 0 after inoculation, selected in CD-Fusion w/o Pro + 0.4 mM DHP, non-selecting conditions): 96.3% | Viability profile (Day 0 after inoculation, selected in CD-Fusion w/o Pro + 0.4 mM DHP, selective conditions): 99.7% | Productivity profile (Day 2 after inoculation, human IgG1, selected in CD-Fusion w/o Pro + 0.05 mM DHP, non-selecting conditions): 9.8 mg/L | Productivity profile (Day 2 after inoculation, human IgG1, selected in CD-Fusion w/o Pro + 0.05 mM DHP, selective conditions): 47.1 mg/L | Productivity profile (Day 2 after inoculation, human IgG1, selected in CD-Fusion w/o Pro + 0.1 mM DHP, non-selecting conditions): 11.0 mg/L | Productivity profile (Day 2 after inoculation, human IgG1, selected in CD-Fusion w/o Pro + 0.1 mM DHP, selective conditions): 37.5 mg/L | Productivity profile (Day 2 after inoculation, human IgG1, selected in CD-Fusion w/o Pro + 0.2 mM DHP, non-selecting conditions): 11.3 mg/L | Productivity profile (Day 2 after inoculation, human IgG1, selected in CD-Fusion w/o Pro + 0.2 mM DHP, selective conditions): 34.4 mg/L | Productivity profile (Day 2 after inoculation, human IgG1, selected in CD-Fusion w/o Pro + 0.4 mM DHP, non-selecting conditions): 11.3 mg/L | Productivity profile (Day 2 after inoculation, human IgG1, selected in CD-Fusion w/o Pro + 0.4 mM DHP, selective conditions): 39.4 mg/L | Viability profile [1]: 98.9% | Viable cell density profile [1]: 6,1E+05 VCD/ml | Viability profile [2]: 99.3% | Viable cell density profile [2]: 7,9E+05 VCD/ml | Viability profile [3]: 99.2% | Viable cell density profile [3]: 6,4E+05 VCD/ml | Viability profile [4]: 99.3% | Viable cell density profile [4]: 8,0E+05 VCD/ml | Viability profile [5]: 99.3% | Viable cell density profile [5]: 5.6E+06 VCD/ml | Viability profile [6]: 99.4% | Viable cell density profile [6]: 7.4E+06 VCD/ml | Viability profile [7]: 99.1% | Viable cell density profile [7]: 2.4E+06 VCD/ml | Viability profile [8]: 99.3% | Viable cell density profile [8]: 5.3E+06 VCD/ml | Productivity profile (Day 4 after inoculation, human IgG1, selected in CD-Fusion w/o Pro + 0.05 mM DHP, non-selecting conditions): 24.2 mg/L | Productivity profile (Day 4 after inoculation, human IgG1, selected in CD-Fusion w/o Pro + 0.05 mM DHP, selective conditions): 114.8 mg/L | Productivity profile (Day 4 after inoculation, human IgG1, selected in CD-Fusion w/o Pro + 0.1 mM DHP, non-selecting conditions): 31.7 mg/L | Productivity profile (Day 4 after inoculation, human IgG1, selected in CD-Fusion w/o Pro + 0.1 mM DHP, selective conditions): 83.8 mg/L | Productivity profile (Day 4 after inoculation, human IgG1, selected in CD-Fusion w/o Pro + 0.2 mM DHP, non-selecting conditions): 34.6 mg/L | Productivity profile (Day 4 after inoculation, human IgG1, selected in CD-Fusion w/o Pro + 0.2 mM DHP, selective conditions): 104.8 mg/L | Productivity profile (Day 4 after inoculation, human IgG1, selected in CD-Fusion w/o Pro + 0.4 mM DHP, non-selecting conditions): 41.0 mg/L | Productivity profile (Day 4 after inoculation, human IgG1, selected in CD-Fusion w/o Pro + 0.4 mM DHP, selective conditions): 105.5 mg/L | Viability profile [9]: 99.8% | Viable cell density profile [9]: 5,3E+06 VCD/ml | Viability profile [10]: 99.7% | Viable cell density profile [10]: 6,5E+06 VCD/ml | Viability profile [11]: 99.5% | Viable cell density profile [11]: 5,2E+06 VCD/ml | Viability profile [12]: 99.6% | Viable cell density profile [12]: 6,1E+06 VCD/ml | Viability profile [13]: 96.4% | Viable cell density profile [13]: 9.5E+06 VCD/ml | Viability profile [14]: 97.5% | Viable cell density profile [14]: 1.2E+07 VCD/ml | Viability profile [15]: 98.9% | Viable cell density profile [15]: 6.9E+06 VCD/ml | Viability profile [16]: 96.1% | Viable cell density profile [16]: 1.1E+07 VCD/ml | Productivity profile (Day 7 after inoculation, human IgG1, selected in CD-Fusion w/o Pro + 0.05 mM DHP, non-selecting conditions): 48.6 mg/L | Productivity profile (Day 7 after inoculation, human IgG1, selected in CD-Fusion w/o Pro + 0.05 mM DHP, selective conditions): 166.2 mg/L | Productivity profile (Day 7 after inoculation, human IgG1, selected in CD-Fusion w/o Pro + 0.1 mM DHP, non-selecting conditions): 104.4 mg/L | Productivity profile (Day 7 after inoculation, human IgG1, selected in CD-Fusion w/o Pro + 0.1 mM DHP, selective conditions): 125.8 mg/L | Productivity profile (Day 7 after inoculation, human IgG1, selected in CD-Fusion w/o Pro + 0.2 mM DHP, non-selecting conditions): 87.4 mg/L | Productivity profile (Day 7 after inoculation, human IgG1, selected in CD-Fusion w/o Pro + 0.2 mM DHP, selective conditions): 179.7 mg/L | Productivity profile (Day 7 after inoculation, human IgG1, selected in CD-Fusion w/o Pro + 0.4 mM DHP, non-selecting conditions): 116.4 mg/L | Productivity profile (Day 7 after inoculation, human IgG1, selected in CD-Fusion w/o Pro + 0.4 mM DHP, selective conditions): 133.4 mg/L | Viability profile [17]: 98.6% | Viable cell density profile [17]: 1,0E+07 VCD/ml | Viability profile [18]: 45.3% | Viable cell density profile [18]: 4.6E+06 VCD/ml

From EP3521435A1, “A HIGH STRINGENCY SELECTION SYSTEM FOR PROTEIN EXPRESSION IN PROLINE-AUXOTROPHIC CELLS” (Bayer AG, priority 2018, dated 2019)
